By IC50 is commonly meant the point on the concentration scale where inhibition reaches its midpoint.

Read-outs that look alike come from different tables or passages of the source.

This test addresses human NAMPT enzyme (His-hNAMPT) (Homo sapiens (Human), UniProt P43490). Briefly: NAMPT enzymatic inhibition assay (fluorescence, NADH product). The test is classed as biochemical.
The mark [1] stands for this setting: [HDB], read-out: NAMPT IC50 (μM) [HDB].

Sequence of human NAMPT enzyme (His-hNAMPT) (P43490 whole entry): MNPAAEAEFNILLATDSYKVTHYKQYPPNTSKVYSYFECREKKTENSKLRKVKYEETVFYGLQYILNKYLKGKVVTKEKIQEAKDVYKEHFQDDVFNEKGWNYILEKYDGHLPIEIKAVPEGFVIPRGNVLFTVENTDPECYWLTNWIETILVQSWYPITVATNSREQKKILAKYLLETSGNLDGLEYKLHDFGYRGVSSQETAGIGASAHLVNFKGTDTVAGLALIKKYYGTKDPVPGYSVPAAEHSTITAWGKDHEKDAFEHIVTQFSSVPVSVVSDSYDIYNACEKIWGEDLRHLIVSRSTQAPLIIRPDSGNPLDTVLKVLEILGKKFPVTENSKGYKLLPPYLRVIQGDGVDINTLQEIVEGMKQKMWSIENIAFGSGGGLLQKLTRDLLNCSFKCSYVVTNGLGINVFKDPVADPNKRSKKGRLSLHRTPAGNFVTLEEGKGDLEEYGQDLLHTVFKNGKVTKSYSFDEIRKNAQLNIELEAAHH

With `CC(C)(C)NC(=O)N1C[C@@H]2[C@@H](CCNC(=O)/C=C/c3ccc(N)nc3)[C@@H]2C1` [Example 293, (1R,5S,6s)-6-(2-((E)-3-(6-aminopyridin-3-yl)acrylamido)ethyl)-N-(tert-butyl)-3-azabicyclo[3.1.0]hexane-3-carboxamide], the IC50 ([BPS], read-out: NAMPT IC50 (μM) [BPS]) was in the range of 0.01 to 0.49 µM.

Take `O=C(/C=C/c1cccnc1)NCC[C@@H]1[C@H]2CN(Cc3ncccn3)C[C@@H]12` [Example 294, (E)-3-(Pyridin-3-yl)-N-(2-((1R,5S,6s)-3-(pyrimidin-2-ylmethyl)-3-azabicyclo[3.1.0]hexan-6-yl)ethyl)acrylamide]: the IC50 under setting [1] lay within 0.01 to 0.49 µM.

As for `O=C(/C=C/c1cccnc1)NCC[C@@H]1[C@H]2CN(CCc3ccccc3)C[C@@H]12` [Example 295, (E)-N-(2-((1R,5S,6s)-3-phenethyl-3-azabicyclo[3.1.0]hexan-6-yl)ethyl)-3-(pyridin-3-yl)acrylamide], the IC50 under setting [1] fell in the range of 0.01 to 0.49 µM.

For the molecule `O=C(/C=C/c1cccnc1)NCC[C@@H]1[C@H]2CN(C(c3ccccc3)C(F)(F)F)C[C@@H]12` (stereo partly drawn) [Example 296, (E)-3-(pyridin-3-yl)-N-(2-((1R,5S,6s)-3-(2,2,2-trifluoro-1-phenylethyl)-3-azabicyclo[3.1.0]hexan-6-yl)ethyl)acrylamide], under setting [1], the IC50 was below 0.01 µM.

Regarding `COc1ncc(F)c(N2C[C@@H]3[C@@H](CCNC(=O)/C=C/c4cccnc4)[C@@H]3C2)n1` [Example 297, (E)-N-(2-((1R,5S,6s)-3-(5-fluoro-2-methoxypyrimidin-4-yl)-3-azabicyclo[3.1.0]hexan-6-yl)ethyl)-3-(pyridin-3-yl)acrylamide], the IC50 under setting [1] is below 0.01 µM.

Regarding `O=C(/C=C/c1cccnc1)NCC[C@@H]1[C@H]2CN(Cc3cncnc3)C[C@@H]12` [Example 298, (E)-3-(pyridin-3-yl)-N-(2-((1R,5S,6s)-3-(pyrimidin-5-ylmethyl)-3-azabicyclo[3.1.0]hexan-6-yl)ethyl)acrylamide], under setting [1], the IC50 is below 0.01 µM.

With `O=C(/C=C/c1cccnc1)NCC[C@@H]1[C@H]2CN(c3ccnc(OC(F)F)c3)C[C@@H]12` [Example 299, (E)-N-(2-((1R,5S,6s)-3-(2-(difluoromethoxy)pyridin-4-yl)-3-azabicyclo[3.1.0]hexan-6-yl)ethyl)-3-(pyridin-3-yl)acrylamide], the IC50 under setting [1] is below 0.01 µM.

Take `O=C(/C=C/c1cccnc1)NCC[C@@H]1[C@H]2CN(Cc3ccccc3Cl)C[C@@H]12` [Example 300, (E)-N-(2-((1R,5S,6s)-3-(2-chlorobenzyl)-3-azabicyclo[3.1.0]hexan-6-yl)ethyl)-3-(pyridin-3-yl)acrylamide]: under setting [1], the IC50 was 0.01 to 0.49 µM.

Consider `O=C(/C=C/c1cccnc1)NCC[C@@H]1[C@H]2CN(Cc3cccc(Cl)c3)C[C@@H]12` [Example 301, (E)-N-(2-((1R,5S,6s)-3-(3-chlorobenzyl)-3-azabicyclo[3.1.0]hexan-6-yl)ethyl)-3-(pyridin-3-yl)acrylamide], for which the IC50 under setting [1] was below 0.01 µM.

With `O=C(/C=C/c1cccnc1)NCC[C@@H]1[C@H]2CN(Cc3ccc(Cl)cc3)C[C@@H]12` [Example 302, (E)-N-(2-((1R,5S,6s)-3-(4-chlorobenzyl)-3-azabicyclo[3.1.0]hexan-6-yl)ethyl)-3-(pyridin-3-yl)acrylamide], the IC50 under setting [1] was in the range of 0.01 to 0.49 µM.

As for `CC(C)Oc1ncc(F)c(N2C[C@@H]3[C@@H](CCNC(=O)/C=C/c4cccnc4)[C@@H]3C2)n1` [Example 303, (E)-N-(2-((1R,5S,6s)-3-(5-fluoro-2-isopropoxypyrimidin-4-yl)-3-azabicyclo[3.1.0]hexan-6-yl)ethyl)-3-(pyridin-3-yl)acrylamide], the IC50 under setting [1] is 0.01 to 0.49 µM.

`CN(C)c1ncc(F)c(N2C[C@@H]3[C@@H](CCNC(=O)/C=C/c4cccnc4)[C@@H]3C2)n1` [Example 304, (E)-N-(2-((1R,5S,6s)-3-(2-(dimethylamino)-5-fluoropyrimidin-4-yl)-3-azabicyclo[3.1.0]hexan-6-yl)ethyl)-3-(pyridin-3-yl)acrylamide]: under setting [1], the IC50 is below 0.01 µM.

Take `O=C(/C=C/c1cccnc1)NCC[C@@H]1[C@H]2CN(c3nc(OC4CCOCC4)ncc3F)C[C@@H]12` [Example 305, (E)-N-(2-((1R,5S,6s)-3-(5-fluoro-2-((tetrahydro-2H-pyran-4-yl)oxy)pyrimidin-4-yl)-3-azabicyclo[3.1.0]hexan-6-yl)ethyl)-3-(pyridin-3-yl)acrylamide]: under setting [1], the IC50 was below 0.01 µM.

As for `O=C(/C=C/c1cccnc1)NCC[C@@H]1[C@H]2CN(c3nc(Oc4ccccc4)ncc3F)C[C@@H]12` [Example 306, (E)-N-(2-((1R,5S,6s)-3-(5-fluoro-2-phenoxypyrimidin-4-yl)-3-azabicyclo[3.1.0]hexan-6-yl)ethyl)-3-(pyridin-3-yl)acrylamide], the IC50 under setting [1] lay in the range of 0.01 to 0.49 µM.

`Cc1cc(N2C[C@@H]3[C@@H](CCNC(=O)/C=C/c4cccnc4)[C@@H]3C2)cc(C)n1` [Example 307, (E)-N-(2-((1R,5S,6s)-3-(2,6-dimethylpyridin-4-yl)-3-azabicyclo[3.1.0]hexan-6-yl)ethyl)-3-(pyridin-3-yl)acrylamide]: the IC50 under setting [1] was in the range of 0.01 to 0.49 µM.

For `O=C(/C=C/c1cccnc1)NCC[C@@H]1[C@H]2CN(c3nc(OCc4ccccc4)ncc3F)C[C@@H]12` [Example 308, (E)-N-(2-((1R,5S,6s)-3-(2-(benzyloxy)-5-fluoropyrimidin-4-yl)-3-azabicyclo[3.1.0]hexan-6-yl)ethyl)-3-(pyridin-3-yl)acrylamide], the IC50 under setting [1] is below 0.01 µM.

With `COC(=O)C(c1ccccc1)N1C[C@@H]2[C@@H](CCNC(=O)/C=C/c3cccnc3)[C@@H]2C1` (stereo partly drawn) [Example 309, methyl 2-phenyl-2-((1R,5S,6s)-6-(2-((E)-3-(pyridin-3-yl)acrylamido)ethyl)-3-azabicyclo[3.1.0]hexan-3-yl)acetate], the IC50 under setting [1] is below 0.01 µM.

Regarding `O=C(/C=C/c1cccnc1)NCC[C@@H]1[C@H]2CN(c3ccnc(OC4CCOCC4)c3)C[C@@H]12` [Example 310, (E)-3-(Pyridin-3-yl)-N-(2-((1R,5S,6s)-3-(2-((tetrahydro-2H-pyran-4-yl)oxy)pyridin-4-yl)-3-azabicyclo[3.1.0]hexan-6-yl)ethyl)acrylamide], the IC50 under setting [1] was 0.01 to 0.49 µM.

In the case of `CN(C)CCOc1ncc(F)c(N2C[C@@H]3[C@@H](CCNC(=O)/C=C/c4cccnc4)[C@@H]3C2)n1` [Example 311, (E)-N-(2-((1R,5S,6s)-3-(2-(2-(dimethylamino)ethoxy)-5-fluoropyrimidin-4-yl)-3-azabicyclo[3.1.0]hexan-6-yl)ethyl)-3-(pyridin-3-yl)acrylamide], the IC50 under setting [1] was below 0.01 µM.

As to `Nc1ncc(F)c(N2C[C@@H]3[C@@H](CCNC(=O)/C=C/c4cccnc4)[C@@H]3C2)n1` [Example 312, (E)-N-(2-((1R,5S,6s)-3-(2-amino-5-fluoropyrimidin-4-yl)-3-azabicyclo[3.1.0]hexan-6-yl)ethyl)-3-(pyridin-3-yl)acrylamide], the 50% inhibitory concentration (IC50) under setting [1] was below 0.01 µM.

As to `COc1ncc(F)c(N2C[C@@H]3[C@@H](CCNC(=O)/C=C/c4ccc(F)nc4)[C@@H]3C2)n1` [Example 313, (E)-N-(2-((1R,5S,6s)-3-(5-fluoro-2-methoxypyrimidin-4-yl)-3-azabicyclo[3.1.0]hexan-6-yl)ethyl)-3-(6-fluoropyridin-3-yl)acrylamide], the IC50 under setting [1] was below 0.01 µM.

`O=C(/C=C/c1cccnc1)NCC[C@@H]1[C@H]2CN(c3nc(OCCO)ncc3F)C[C@@H]12` [Example 314, (E)-N-(2-((1R,5S,6s)-3-(5-fluoro-2-(2-hydroxyethoxy)pyrimidin-4-yl)-3-azabicyclo[3.1.0]hexan-6-yl)ethyl)-3-(pyridin-3-yl)acrylamide]: the IC50 under setting [1] lay in the range of 0.01 to 0.49 µM.

These data come from patent US12421210B2, “Fused bicyclic heterocycles as therapeutic agents” (NEW YORK UNIVERSITY, priority 2018, dated 2025).
